From patent publication EP0384661A1, “Antialgal compositions comprising diphenylethers” (ROHM AND HAAS COMPANY, priority 1989, dated 1990)
Converted amounts (≈) assume the structure as drawn. Where a name gives a salt, the structure may show the parent alone. Blank lines part the entries; values can stand above or below the compound they belong to.

Key:
[1] = system: Mixed Cooling Tower Culture; experiment: MIC microtiter plate assay; assay type: cell-based, mixed culture of algae; settings: growth/no-growth after 14 or 21 days, 25°C
Description: (§1) Efficacy studies were conducted on a variety of microorganisms with oxyfluorfen. Minimum Inhibitory Concentration (MIC) studies were conducted using microtiter plate assays. In this method, a wide range of concentrations was tested by preparing two-fold serial dilutions of the compound in 96-well plastic microtiter plates. All liquid media transfers were performed with calibrated single or multichannel digital pipetters. Stock solutions of compounds were prepared in appropriate solvents and dispensed to the growth medium. All subsequent dilutions in plates were made using the desired growth medium. The total volume of liquid in each well was 100 ul. The pure cultures used in this study were obtained from the Culture Collection of Algae at the University of Texas at Austin (UTEX). The mixed culture of algae was obtained from a cooling tower biofilm and maintained in liquid medium; microorganisms used as inocula were cultured in shaken liquid culture (50 ml of Bristol's medium, pH 7.0, 25°C); Journal of Phycology, 23s: 1-47, 1987) for one week or as needed to attain a desired cell mass. The cultures were then inoculated into the microtiter plates using a 96-prong multiple inoculator (5 µl inoculum); each well received a standard suspension of biomass (5% inoculum). Plates were incubated at 25°C under constant illumination (500 ft candles). The extent of growth was determined under low magnification with the aid of a microtiter plate reader. The growth in each cell was monitored periodically and growth/no-growth was recorded after 14 or 21 days. […] Following the evaluation procedure of Example 3, compounds according to the following structural formula, with X and Y substituents according to Table 4A, were evaluated with the results shown in Table 4B. [drawing 4]

[2] = system: Anabaena flos-aquae; experiment: MIC microtiter plate assay; assay type: cell-based; settings: Dolichospermum flos-aquae; growth/no-growth after 14 or 21 days, 25°C
Description: as §1

[3] = system: 10 differents types of algae; settings: all levels tested; 10 types of algae; cited from earlier work
[4] = system: mixed population of algae and blue-green bacteria; experiment: Model cooling tower biofilm efficacy (chlorophyll a); assay type: cell-based; settings: one-per-week slug doses, biofilm harvested after four weeks
Description: Oxyfluorfen was tested as a water treatment antialgal compound in model cooling towers which simulate pertinent process variables of industrial cooling towers. Compounds were dosed on a regular basis and the efficacy of the treatments was determined by measuring a parameter of algal or cyanobacterial biomass; specific operating parameters are described below.
The basic design consisted of an acrylic plastic tower placed within a 17-liter polycarbonate basin. Each model contained a temperature control system, acid (H₂SO₄) or base (KOH) feed for pH control, air flow regulators, water recirculation system, and a makeup water supply. Two sets of five towers were placed in vented enclosures.
The basin contained an overflow port positioned to provide a constant 8-liter working volume in the system. […]
Illumination was provided by cool white and grow-lux fluorescent lights operated on a 19 hours per day cycle. The heating system for each unit consisted of an immersion heating element, temperature controller, two thermistors, and a direct readout thermometer. […]
The model cooling towers were designed and operated to maintain a constant half-life in each unit. […] The rate of removal of a given compound from the system was thereby determined by the concentration of the material in the bulkwater and the rate of blowdown from the tower. […]

[5] = system: mixed cooling tower culture; experiment: Simulated cooling tower water jar test, visual growth rating; assay type: cell-based; parameters: key to Visual Rating (7 Day Incubation): 0 = no growth; 1 = slight growth; 3 = moderate growth; 5 = abundant growth; settings: for Visual Rating (7 Day Incubation): synthetic cooling tower water pH 8.5
Description: A study was conducted with simulated cooling tower water to determine the effect of oxyfluorfen as an antialgal compound under simulated cooling tower conditions. Synthetic cooling tower water was made up with the following final concentrations (pH 8.5): Approximately 500 ml of the above solution was added to half-gallon jars and each jar was charged with given levels of oxyfluorfen (supplied as an emulsifiable concentrate); one jar contained no antialgal compound (control). Another set of jars was prepared with known levels of Isothiazolone A, a known antialgal compound for comparison purposes. Each jar was inoculated with 5 ml of a mixed cooling tower culture which was obtained from surface scrapings of industrial cooling towers; the mixed populations were maintained at room temperature in modified Allen's Media Formulation B described below in Part B. Each jar was inoculated two times per week to challenge the system. Jars were incubated under a 12 hour illumination cycle at room temperature (25°C) and were mixed manually (by swirling) three times per day. Visual observations were recorded daily using the rating scale described in Part C.

[6] = system: Phormidium luridum var. olivace; experiment: MIC microtiter plate assay; assay type: cell-based; settings: Drouetiella lurida; growth/no-growth after 14 or 21 days, 25°C
Description: (§2) Efficacy studies were conducted on a variety of microorganisms with oxyfluorfen. Minimum Inhibitory Concentration (MIC) studies were conducted using microtiter plate assays. In this method, a wide range of concentrations was tested by preparing two-fold serial dilutions of the compound in 96-well plastic microtiter plates. All liquid media transfers were performed with calibrated single or multichannel digital pipetters. Stock solutions of compounds were prepared in appropriate solvents and dispensed to the growth medium. All subsequent dilutions in plates were made using the desired growth medium. The total volume of liquid in each well was 100 ul. The pure cultures used in this study were obtained from the Culture Collection of Algae at the University of Texas at Austin (UTEX). The mixed culture of algae was obtained from a cooling tower biofilm and maintained in liquid medium; microorganisms used as inocula were cultured in shaken liquid culture (50 ml of Bristol's medium, pH 7.0, 25°C); Journal of Phycology, 23s: 1-47, 1987) for one week or as needed to attain a desired cell mass. The cultures were then inoculated into the microtiter plates using a 96-prong multiple inoculator (5 µl inoculum); each well received a standard suspension of biomass (5% inoculum). Plates were incubated at 25°C under constant illumination (500 ft candles). The extent of growth was determined under low magnification with the aid of a microtiter plate reader. The growth in each cell was monitored periodically and growth/no-growth was recorded after 14 or 21 days.

[7] = system: Scendesmus quadricaudra; experiment: MIC microtiter plate assay; assay type: cell-based; settings: growth/no-growth after 14 or 21 days, 25°C
Description: as §2

[8] = system: Nostoc commune; experiment: MIC microtiter plate assay; assay type: cell-based; settings: growth/no-growth after 14 or 21 days, 25°C
Description: as §2

[9] = system: Chlorella pyrenoidosa; experiment: MIC microtiter plate assay; assay type: cell-based; settings: growth/no-growth after 14 or 21 days, 25°C
Description: as §2

[10] = system: Synechococcus leopooliensis; experiment: MIC microtiter plate assay; assay type: cell-based; settings: growth/no-growth after 14 or 21 days, 25°C
Description: as §2

[11] = system: Clorococcum oleofaciens; experiment: MIC microtiter plate assay; assay type: cell-based; settings: growth/no-growth after 14 or 21 days, 25°C
Description: as §2

[12] = system: Selanastrum capricornutum; experiment: MIC microtiter plate assay; assay type: cell-based; settings: growth/no-growth after 14 or 21 days, 25°C
Description: as §2

[13] = system: mixed cooling tower algae; experiment: Paint algicide test (latex paint on tongue depressors); assay type: cell-based; parameters: key to 7 Days Algal Growth / 10 Days Algal Growth / 14 Days Algal Growth: 0 = No Algal Growth; 5 = Moderate Algal Growth; 10 = Heavy Algal Growth
Description: Solutions of oxyfluorfen were prepared as follows in 1-ounce (28.3g) glass vials. Oxyfluorfen concentrate (0.17 g) was added to 19.83 g latex paint formulation (described below) to give 2-lb oxyfluorfen/100 gal. (2 kg/833 l) paint solution; in a similar manner, 0.08 g oxyfluorfen concentrate was added to 19.92 g latex paint formulation to give 1-lb/100-gal (1 kg/833 l) solution. Oxyfluorfen concentrate (1.0 g) was added to 19.0 g mixture of 2 parts xylene/1 part cyclohexanone; 0.17 g of the resultant solution was added to 19.83 g latex paint formulation to give 0.1-lb/100-gal oxyfluorfen solution; in a similar manner, 0.016 g of xylene/cyclohexanone solution was added to 19.984 g latex paint formulation to give 0.01-lb/100-gal solution.
The solutions were stirred manually with Teflon spatulas and each was applied to two tongue depressors using #7 paint brushes. Two control tongue depressors were similarly prepared except without oxyfluorfen in the latex paint formulation. The tongue depressors were allowed to dry for one week and then inoculated with four 50 ul drops of mixed cooling tower algae (obtained from surface scrapings of industrial cooling towers and maintained in a modified Allen's media formulation, described in EXAMPLE 1).
The tongue depressors were placed on plastic stages within large petri dishes and the area around the stages was filled with deionized water. The petri dishes were covered and placed in a Precision (Model 816) low temperature (25C) illuminated incubator for one week; at this point the tongue depressors were re-inoculated with one ml of the mixed cooling tower algae and returned to the incubator. The tongue depressors where then checked daily for algal growth (visual); results are found in Part C.
Oxyfluorfen was added as a 24% emulsifiable concentrate in mixed organic solvents. The following formulation is a typical paint blend for testing of stabilization against algal activity. Texanol¿ is trimethyl-1,3-pentanediol monoisobutyrate supplied by Eastman Chemical; Rhoplex AC-64 is a commercially available latex of a copolymer of butyl acrylate and methyl methacrylate. This paint formulation has a pH of 9.4 and an initial viscosity of […] (Krebs units).

[14] = 10 ppm (0.01 lb/100-gal) in latex paint
[15] = 100 ppm (0.10 lb/100-gal) in latex paint
[16] = 1000 ppm (1.0 lb/100-gal) in latex paint
[17] = 2000 ppm (2.0 lb/100-gal) in latex paint

SMILES: Oc1cccc(Oc2ccc(C(F)(F)F)cc2Cl)c1 [4A comparative]
MIC [1]: 1.6 µg/mL (≈ 5.54 µM)
MIC [2]: 3.1 µg/mL (≈ 10.7 µM)

SMILES: O=C(O)c1cc(Oc2ccc(C(F)(F)F)cc2Cl)ccc1[N+](=O)[O-] [acifluorfen, 2-chloro-4-trifluoromethylphenyl-3′-carboxy-4′-nitrophenylether, sodium salt]
effectiveness on algae [3]: ineffective at all levels tested

SMILES: CC(=O)Oc1cccc(Oc2ccc(C(F)(F)F)cc2Cl)c1 [4B comparative]
MIC [1]: 8 µg/mL (≈ 24.2 µM)
MIC [2]: 16 µg/mL (≈ 48.4 µM)

SMILES: CCOc1cc(Oc2ccc(C(F)(F)F)cc2Cl)ccc1[N+](=O)[O-] [Oxyfluorfen, oxyfluorfen]
Chlorophyll a in Biofilm ([4]; 0.05 ppm): 3.27 ug/cm2
activity at 0.05 ppm ([4]; 672 h, read-out: Chlorophyll a in Biofilm % of control): 24%
MIC [1]: < 0.004 µg/mL
Visual Rating (7 Day Incubation) ([5]; 0.005 ppm): 0
Visual Rating (7 Day Incubation) ([5]; 0.010 ppm): 0
Visual Rating (7 Day Incubation) ([5]; 0.025 ppm): 0
Visual Rating (7 Day Incubation) ([5]; 0.050 ppm): 0
Visual Rating (7 Day Incubation) ([5]; 0.100 ppm): 0
Visual Rating (7 Day Incubation) ([5]; 0.250 ppm): 0
Visual Rating (7 Day Incubation) ([5]; 0.500 ppm): 0
levels effective for controlling cooling tower algae ([5]; simulated water chemistry conditions): ≤ 5 ppb
MIC [2]: > 500 µg/mL
MIC [6]: > 500 µg/mL
MIC [7]: < 0.002 µg/mL
MIC [8]: > 500 µg/mL
MIC [9]: 0.125 ppm
MIC [10]: > 500 µg/mL
MIC [11]: > 0.125 µg/mL
MIC [12]: 0.008 µg/mL (≈ 0.0221 µM)
7 Days Algal Growth [13, 14]: 0
10 Days Algal Growth [13, 14]: 2
14 Days Algal Growth [13, 14]: 3
7 Days Algal Growth [13, 15]: 0
10 Days Algal Growth [13, 15]: 1
14 Days Algal Growth [13, 15]: 1
7 Days Algal Growth [13, 16]: 0
10 Days Algal Growth [13, 16]: 0
14 Days Algal Growth [13, 16]: 0
7 Days Algal Growth [13, 17]: 0
10 Days Algal Growth [13, 17]: 0
14 Days Algal Growth [13, 17]: 0
levels that significantly reduced the rate of algal growth ([13]; for up to 14 days, in latex paint): ≤ 10 ppm
levels that totally inhibited algal growth ([13]; in latex paint): above 100 ppm

SMILES: O=C(O)c1cc(Oc2ccc(C(F)(F)F)cc2Cl)ccc1[N+](=O)[O-] [4E comparative]
MIC [1]: 12.5 µg/mL (≈ 34.6 µM)
MIC [2]: > 50 µg/mL

Further lines, results first:

MIC [1]: 0.25 µg/mL (≈ 0.665 µM)
MIC [2]: 12.5 µg/mL (≈ 33.3 µM)
SMILES: CC(=O)Oc1cc(Oc2ccc(C(F)(F)F)cc2Cl)ccc1[N+](=O)[O-] [4C comparative]

MIC [1]: 1 µg/mL (≈ 2.23 µM)
SMILES: CCOC(=O)COC(=O)c1cc(Oc2ccc(C(F)(F)F)cc2Cl)ccc1[N+](=O)[O-] [4F comparative]

MIC [1]: 0.06 µg/mL (≈ 0.18 µM)
MIC [2]: 12.5 µg/mL (≈ 37.5 µM)
SMILES: O=[N+]([O-])c1ccc(Oc2ccc(C(F)(F)F)cc2Cl)cc1O [4D comparative]

MIC [1]: 0.25 µg/mL (≈ 0.576 µM)
SMILES: CCOC(=O)C(C)Oc1cc(Oc2ccc(C(F)(F)F)cc2Cl)ccc1[N+](=O)[O-] (stereo not shown) [Compound 4G]
